# Measurements published in paper PMC8373196, “In silico, in vitro, and ex vivo studies of the toxicological and pharmacological properties of the flavonoid 5,7-dihydroxy-3,8,4'-trimethoxy” (Brazilian Journal of Medical and Biological Research, 2021).
# Where two headings read alike, the source gives them in different places.
# Columns and labels:
# oral mucosa cells = assay: Genotoxic effect on oral mucosa cells (ex vivo); type: cell-based, human
# Source text: (§1) The in vitro and ex vivo assays followed the guidelines provided in the Ethics Code of the World Medical Association and were approved by the Ethics Committee of the Patos University Center (protocol number: 3.621.284). For cell pellet preparation, blood samples (A, B, and O), and buccal mucosa were used from healthy young adults of both sexes between 18 and 40 years of age.
# For evaluation of the genotoxic effect on oral mucosa cells, cell collection from the oral mucosa of the donors was performed with a cytobrush (smear brush collector) in the cheek area, and the material obtained was placed in 5 mL of 0.9% NaCl ([7]). Control samples were divided into two groups: cells treated with 0.0005% hydrogen peroxide (positive control) and cells not exposed to treatments (negative control). The cells were washed twice in saline solution and centrifuged for 10 min (900 g, 28°C). The cell pellets were re-suspended and kept in 5 mL of saline solution. After the third wash, they were exposed (ex vivo) to Pg-1 (50, 100, 500, and 1000 µg/mL) for 30 min; each test was performed in triplicate. The material was centrifuged for 5 min (900 g, 28°C) and the supernatant was removed before smear preparation. The cells were homogenized in a vortex and dried on the slides at room temperature for 15 min. Finally, they were fixed with a methanol:acetic acid mixture (3:1) for 15 min ([8]), and stained with 2% Giemsa. The cells were observed under an optical microscope and about 1000 cells were analyzed per slide. The data are reported as percentages representing the arithmetic average of three measurements ([9]). The cell toxicity was assessed by the presence of cellular indicators such as micronucleus, bi-nucleation, karyolysis, karyorrhexis, and macronucleus ([10]).
# [1] = Hemolytic activity on human erythrocytes (in vitro); type: cell-based; conditions: both sexes; for hemolysis at 1 h, 1000 µg/mL: 0.5% red blood cell suspension, read-out: hemolysis rate
# Source text: as §1
# For hemolytic activity, red blood cell (RBC) samples were mixed with 0.9% NaCl in a proportion of 1:30 and centrifuged for 5 min (1400 g, 28°C) to obtain a white blood cell and platelet-free 0.5% suspension. The tested substance (Pg-1) was added to 2 mL RBC suspensions at the concentrations of 50, 100, 500, and 1000 µg/mL. The control samples were divided into two groups: negative control - RBC suspension (0% hemolysis) and a positive control - RBC suspension with 1% Triton X-100 (100% hemolysis). The material was incubated for 1 h at 22±2°C. Afterwards, the samples were centrifuged for 5 min (1400 g, 28°C) and hemolysis was quantified by spectrophotometry at 540 nm wavelength ([6]).
smiles,measurement,setting,value
"OO [Positive control, hydrogen peroxide, reference compound]",Binucleation (%),oral mucosa cells; 0.0005% hydrogen peroxide,4.33±0.38%
same,Karyolysis (%),oral mucosa cells; 0.0005% hydrogen peroxide,5.44±0.72%
same,Karyorrhexis (%),oral mucosa cells; 0.0005% hydrogen peroxide,5.11±0.67%
same,Macronucleus (%),oral mucosa cells; 0.0005% hydrogen peroxide,4.55±0.80%
same,Micronucleus (%),oral mucosa cells; 0.0005% hydrogen peroxide,4.00±0.88%
same,Normal (%),oral mucosa cells; 0.0005% hydrogen peroxide,76.56±3.08%
same,Normal (%),"oral mucosa cells; 0.0005% hydrogen peroxide, listed as positive control",< 80%
"COc1ccc(-c2oc3c(OC)c(O)cc(O)c3c(=O)c2OC)cc1 [Pg-1, 5,7-dihydroxy-3,8,4'-trimethoxy]",hemolysis at 1 h,"[1]; 0.5% red blood cell suspension (blood types A, B and O), all concentrations tested (50-1000 µg/mL), read-out: rate of hemolysis (class)",0 to 40%
same,"hemolysis at 1 h, 1000 µg/mL",[1]; type A blood,< 5%
same,"hemolysis at 1 h, 1000 µg/mL",[1]; type B blood,< 17%
same,"hemolysis at 1 h, 1000 µg/mL",[1]; type O blood,< 9%
same,Binucleation (%),"oral mucosa cells; 50 µg/mL, 30 min",3.00±0.33 %
same,Karyolysis (%),"oral mucosa cells; 50 µg/mL, 30 min",2.88±0.11 %
same,Karyorrhexis (%),"oral mucosa cells; 50 µg/mL, 30 min",1.77±0.58 %
same,Macronucleus (%),"oral mucosa cells; 50 µg/mL, 30 min",6.55±0.58%
same,Micronucleus (%),"oral mucosa cells; 50 µg/mL, 30 min",0.55±0.11 %
same,Normal (%),"oral mucosa cells; 50 µg/mL, 30 min",85.22±0.72 %
same,Binucleation (%),"oral mucosa cells; 100 µg/mL, 30 min",1.77±0.58 %
same,Karyolysis (%),"oral mucosa cells; 100 µg/mL, 30 min",2.44±0.44 %
same,Karyorrhexis (%),"oral mucosa cells; 100 µg/mL, 30 min",7.33±0.19%
same,Macronucleus (%),"oral mucosa cells; 100 µg/mL, 30 min",3.55±0.94 %
same,Micronucleus (%),"oral mucosa cells; 100 µg/mL, 30 min",0.22±0.11 %
same,Normal (%),"oral mucosa cells; 100 µg/mL, 30 min",84.67±1.07 %
same,Binucleation (%),"oral mucosa cells; 500 µg/mL, 30 min",2.33±0.50 %
same,Karyolysis (%),"oral mucosa cells; 500 µg/mL, 30 min",2.55±0.80 %
same,Karyorrhexis (%),"oral mucosa cells; 500 µg/mL, 30 min",3.66±1.01 %
same,Macronucleus (%),"oral mucosa cells; 500 µg/mL, 30 min",5.33±0.33%
same,Micronucleus (%),"oral mucosa cells; 500 µg/mL, 30 min",0.22±0.11 %
same,Normal (%),"oral mucosa cells; 500 µg/mL, 30 min",85.89±1.78 %
same,Binucleation (%),"oral mucosa cells; 1000 µg/mL, 30 min",1.55±0.58 %
same,Karyolysis (%),"oral mucosa cells; 1000 µg/mL, 30 min",1.44±0.22 %
same,Karyorrhexis (%),"oral mucosa cells; 1000 µg/mL, 30 min",1.44±0.11 %
same,Macronucleus (%),"oral mucosa cells; 1000 µg/mL, 30 min",3.66±0.19 %
same,Micronucleus (%),"oral mucosa cells; 1000 µg/mL, 30 min",0.33±0.01 %
same,Normal (%),"oral mucosa cells; 1000 µg/mL, 30 min",91.56±0.44 %
same,toxicity in genotoxicity testing,oral mucosa cells; all concentrations (50-1000 µg/mL),low toxicity
